Experiments:
[1] = Dermal absorption study in mice of K-252a versus K-252a-PEG; assay type: in vivo; details: male, Balb/C, mouse, plasma, topical, 3 mg/kg dermal
Procedure: The experiment was performed using a dose of active agent in both preparation of 3 mg/kg. For the present study, three subsequent experiments have been performed in vivo using each time 6 Balb/C male mice purchased from Charles River (Calco, Italy). The mice were subdivided in the following experimental groups (two animals per group): • Group 1: The mice were treated with 3 mg/kg of K-252-a, by dermal administration and sacrificed after 30 minutes. • Group 2: The mice were treated with 3 mg/kg of K-252-a by dermal administration and sacrificed after 60 minutes. • Group 3: The mice were treated with 3 mg/kg of K-252-a-PEG(2K) of Example 1 by dermal administration and sacrificed after 60 minutes.
The oil-based preparations are in form of emulsions which are rendered homogeneous by repeated sonication. […] The applied emulsion was gently massaged on the back of the mice to favor the absorption. The mice were then sacrificed respectively after 30 or 60 minutes under ether anaesthesia and the blood was collected from the ventral aorta with the insulin syringe (approx. 1 mL/animal). […] The blood samples were then centrifugated at 2000 g for 5 minutes in a refrigerated (4° C.) centrifuge, purified by solid phase extraction (SPE) and subsequently analyzed through HPLC quantitative analysis (RT-HPLC analysis with)(Terra C18 column, eluent water/ACN). […]

human keratinocytes = experiment: MTT-assay, antiproliferative activity on keratinocytes; assay type: cell-based
Procedure: A metabolic MTT-assay was performed as test of the cellular vitality. The MTT-assay was performed using a well known and validated protocol, whereby the results are quantified through a spectrophotometric lecture, the number of living cells being directly proportional to the quantity of the formazan product formed as reduction product of MTT ([3-(4,5-dimethylthiazol-2-yl)-2,5-diphenyltetrazoliumbromid]) (Mosmann T., Rapid colorimetric assay for cellular growth and survival: Application to proliferation and cytotoxicity assays. J. Immunol. Methods. 1983, Dec. 16, 65(1-2):55-63). In the present study, the MTT-assay was performed on subconfluent cultures of keratinocytes seeded in 96-well plates for cellular culture (8000 cells/well). After the cells have been exposed to the substance which has to be analyzed, the cells are incubated for 4 hours at 37° C. with MTT (0.05%) in serum-free keratinocyte growth medium (KGM Clonetics Corp. San Diego, Calif., USA). After solubilisation of the cells with detergents, the formation of the dyestuff formazan is detected using a spectrophotometer for multi-well plate at 540 nm. The results are given as optical density unit (OD). […]

[2] = Acute single dose toxicity study in mice, intraperitoneal route; assay type: in vivo; details: for LD50 at 7 days: Balb/c, mouse, in vivo, ip, single dose intraperitoneal
Procedure: (§1) Observations, which included clinical signs and behavioral changes, were performed every 30 minutes in the first 6 hour following administration, and twice a day during the following 7 days.

[3] = Acute single dose toxicity study in mice, oral administration; details: both sexes, Balb/c, mouse, in vivo
Procedure: as §1
Similar results have been obtained following oral administration.

LPS-induced endotoxemia = experiment: Plasma cytokines in mice after LPS-induced endotoxemia; assay type: in vivo; details: parallel experiment, treated before LPS; versus vehicle
Procedure: A study was performed with the purpose to quantitatively determine a panel of 24 cytokines in the plasma of mice at different time points after LPS-induced endotoxemia and to compare the profiles obtained with those of CT327 pre-treated endotoxemic mice.
The animals were divided into two experimental groups (55 mice/group) that were treated following this schedule:
At time 0 both groups received a dose of LPS corresponding to 4 mg/kg, i.p.
The “treated” experimental group received a single dose of CT327 corresponding to 105.56 mg/kg, i.p. This dose was administered 15 minutes before LPS endotoxemia induction (time 0). At the same time the “control” group received an equivalent volume of vehicle solution.
Each experimental group was divided into 11 sub-groups with 5 mice/sub-group. Each sub-group was sacrificed at different time points and blood samples collected.
Time points for blood sample collection were: • Time: time 0 (basal); before LPS treatment • Time: +30 minutes; after LPS treatment • Time: +1 hours; after LPS treatment • Time: +2 hours; after LPS treatment • Time: +3 hours; after LPS treatment • Time: +6 hours; after LPS treatment • Time: +12 hours; after LPS treatment • Time: +18 hours; after LPS treatment • Time: +24 hours; after LPS treatment • Time: +48 hours; after LPS treatment • Time: +72 hours; after LPS treatment
Blood samples were collected in sodium citrate tubes (100 μl sodium citrate 0.1 M/900 μl of blood) and centrifuged at 1000 g at 4° C. for 10 minutes. Plasma samples were collected and 50 μl/sample were frozen at −80° C. until testing for multiple cytokines profiling. The samples were analyzed in double through the Bio-Plex System (Bio-Rad) by using the 23-plex panel at the Dept. of Genetics, Biology and Biochemistry, Torino University, led by Prof. Silengo. Plasma levels of the following cytokines were determined: IL-1a, IL-1b, IL-2, IL-3, IL-4, IL-5, IL-6, IL-10, IL-12(p40), IL-12(p70), IL-17, G-CSF, GM-CSF, IFN-γ, KC, MIP-1-α, RANTES, TNF-α, IL-9, IL-13, eotaxin, MCP-1, MIP-1-α.

protein kinase C (PKC) = details: cited from earlier work

COC(=O)[C@]1(O)C[C@@H]2O[C@@]1(C)n1c3ccccc3c3c4c(c5c6ccccc6n2c5c31)C(=O)NC4 [Compound K-252a, K-252a]
concentration at 30 min ([1]; sacrificed after 30 minutes): 23.3 ng/mL | concentration at 60 min ([1]; sacrificed after 60 minutes): 42.1 ng/mL | concentration with statistically significant antiproliferative action (human keratinocytes; any contact time (1, 2, 4 h), cell counting after 48 h): 200 nM | antiproliferative activity (human keratinocytes; contact 1, 2, 4 h, cell counting after 96 h): obtained for any tested concentration and any contact time | LD50 at 7 days ([2]; female mice, read-out: LD50): 41.4 mg/kg | LD50 at 7 days ([2]; male mice, read-out: LD50): 37.7 mg/kg | LD50 at 7 days ([2]; both sexes, males and females together, read-out: average LD50): 39 mg/kg | survival ([2]; female mice, 45 mg/kg, five per group): One female survived out of the five | survival ([2]; female mice, 60 mg/kg, five per group): one | survival ([2]; female mice, doses higher than 60 mg/kg): lethal to all female mice | survival ([2]; female mice, lowest dose (30 mg/Kg)): survived | survival ([2]; male mice, 30 mg/Kg): survived | survival ([2]; male mice, all doses above 30 mg/Kg, within the first 22 hours after dosing): found dead | sedation ([2]; males and females, lowest dose (30 mg/Kg), disappeared within 8-10 hours): very mild/mild sedation | LD50 at 7 days [3]: 78 mg/kg | IFN-γ secretion in plasma (LPS-induced endotoxemia): significant reduction | MCP-1 secretion in plasma (LPS-induced endotoxemia): significant reduction | MIP-α secretion in plasma (LPS-induced endotoxemia): significant reduction | RANTES secretion in plasma (LPS-induced endotoxemia): significant reduction | TNF-α secretion in plasma (LPS-induced endotoxemia): significant reduction | inhibition of protein kinase C (protein kinase C (PKC)): strongly inhibits

From patent publication US8673347B2 (Creabilis Therapeutics S.p.A., priority 2005, dated 2014)
